Experimental data taken from PubChem BioAssay AID463199 (Broad Institute, 2010).
The source made the active and inactive calls.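 The calls were made as follows: active = AC50, the dose giving half-maximal effect, exceeds a fixed cutoff for a compound that rescues yeast growth under heat; inactive = the rest, inconclusive results apart.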

Each compound was assayed on S. cerevisiae Burl-1 ts mutant growth, BacTiter-Glo, 38.5C 24 h (assay: growth induction of Burl-1 ts yeast mutant, dose response, counter-screen for SUMOylation pathway inhibitor project, whole organism, S. cerevisiae, luminescence (AID 463199)).
With `O=C(NNC(=O)c1ccc(-n2cncn2)c([N+](=O)[O-])c1)c1ccc(Cl)cc1` the AC50 was > 42 µM (inactive). With `CCN(C(=O)COC(=O)c1c(-c2ccccc2)noc1C)c1c(N)n(Cc2ccccc2)c(=O)[nH]c1=O` the AC50 was > 42 µM (inactive). `Cc1cc(C)cc(C(=O)N2CCC3(CC2)NCCc2[nH]cnc23)c1` was tested, and the AC50 was > 42 µM (inactive). With `CC1=CC2=NC(=O)/C(=C\c3cc(C)n(-c4ccccc4)c3C)C(=N)N2O1` the AC50 was > 42 µM (inactive). `CN(C)c1ccc(C(=O)N2CCCC(CCC(=O)N3CCN(c4ccccn4)CC3)C2)cc1` (stereo unspecified) was tested, and the AC50 was > 42 µM (inactive). For `Cc1ccc(NC(=O)CN2CCN(CCN=CC3=C(O)CC(C)(C)CC3=O)CC2)cc1`, the AC50 was > 42 µM (inactive). In the case of `O=S(=O)(Cc1cc(-c2ccccc2)no1)c1ccccc1`, the AC50 is reported as > 42 µM (inactive). With `COc1ccc(OCC(O)CN2C(=O)NC(C)(C)C2=O)cc1` (stereo unspecified) the AC50 was > 42 µM (inactive). `COc1cc(CN2CCNC(=O)C2CC(=O)NCCc2ncccc2C)cc(OC)c1` (stereo unspecified) was tested, and the AC50 was > 42 µM (inactive). `CSc1nc2ccc(NC(=O)c3c(F)cccc3F)cc2s1` was tested, and the AC50 was > 42 µM (inactive). In the case of `COc1ccccc1CC(=O)N1CCOCC1`, the AC50 is reported as > 42 µM (inactive). With `Cn1c(CSc2nc3ccccc3s2)nnc1SCC(=O)NCCN1CCOCC1` the AC50 was > 42 µM (inactive). `NC(=O)CC(NC(=S)NCc1ccccc1)C(=O)O` (stereo unspecified) was tested, and the AC50 was > 42 µM (inactive). With `CCOc1ccc(NC(=O)CN(C)C(=O)c2ccc(OCc3ccccc3)c(OC)c2)cc1OCC` the AC50 was > 42 µM (inactive). In the case of `CCN(CC(=O)NCc1ccc(Cl)cc1)C(=O)/C=C/c1ccc(C#N)cc1`, the AC50 is reported as > 42 µM (inactive). `COc1ccc(NC(=O)CN(C)C(=O)/C=C/c2cn(-c3ccccc3)nc2-c2ccc(C)cc2)cc1` was tested, and the AC50 was > 42 µM (inactive). With `O=C(NCc1nc(-c2ccccc2)no1)c1cccs1` the AC50 was > 42 µM (inactive). With `Cc1cc(C)cc(C(=O)NC(CC(N)=O)c2ccc(NCCN3CCOCC3)c([N+](=O)[O-])c2)c1` (stereo unspecified) the AC50 was > 42 µM (inactive). `CCc1ccc2c(c1)C(c1ccc([N+](=O)[O-])cc1)=NNC(c1ccc(C)cc1)=N2` was tested, and the AC50 was > 42 µM (inactive). For `Cc1c(OC(C)C(=O)N2C[C@H]3C[C@@H](C2)c2cccc(=O)n2C3)ccc2c3c(c(=O)oc12)CCCC3` (stereo partly specified), the AC50 was > 42 µM (inactive). With `CCS(=O)(=O)N1CCC(C(=O)NCCCN2CCN(c3ccccc3F)CC2)CC1` the AC50 was > 42 µM (inactive). With `CCN(CC)c1ccc(Nc2cc3n(c(=O)n2)CCc2cc(OC)c(OC)cc2-3)cc1` the AC50 was > 42 µM (inactive). With `CN(C)CC/C=C1\c2ccccc2Sc2ccc(Cl)cc21` the AC50 was > 42 µM (inactive). With `CCn1c(SCC(N)=O)nnc1-c1cc2c(C)nn(-c3ccccc3)c2s1` the AC50 was > 42 µM (inactive). With `COc1cc(/C=N/NC(=O)c2cccc([N+](=O)[O-])c2)ccc1O` the AC50 was > 42 µM (inactive). With `Cc1nc2ccccc2c(=O)n1CC(=O)N1CCOCC1` the AC50 was > 42 µM (inactive). For `O=S(=O)(NCc1ccc(Cl)cc1)c1cnc[nH]1`, the AC50 was > 42 µM (inactive). In the case of `O=C(COc1ccccc1)Nc1cccc(-c2nnc(-c3ccccc3)o2)c1`, the AC50 is reported as > 42 µM (inactive). In the case of `CC(=O)Nc1cccc(OCC(O)Cn2c(C)nc3ccccc32)c1` (stereo unspecified), the AC50 is reported as > 42 µM (inactive). In the case of `Cc1ccc(-c2nnc(SCC#N)n2N)cc1`, the AC50 is reported as > 42 µM (inactive). For `Cc1ccc(S(=O)(=O)Cc2ccc(C(=O)N3CCN(c4ccccn4)CC3)o2)cc1`, the AC50 was > 42 µM (inactive). For `CS(=O)(=O)c1ccc(Cl)c(C(=O)O)c1`, the AC50 was > 42 µM (inactive). For `O=C(CN1CCN(c2ccccc2F)CC1)Nc1nnc(C(F)(F)F)s1`, the AC50 was > 42 µM (inactive). With `C=CCn1c(-c2ccc(OC)cc2)nc2ccccc21` the AC50 was > 42 µM (inactive). In the case of `COc1ccc(C(=O)Sc2ccc(Cl)cc2)cc1OC`, the AC50 is reported as > 42 µM (inactive). In the case of `COc1ccc(S(=O)(=O)N2CCOC2CNC(=O)C(=O)NCc2ccncc2)cc1C` (stereo unspecified), the AC50 is reported as > 42 µM (inactive). In the case of `CC[C@@H]1C/C=C\Cc2ccccc2[C@H](C(=O)C[C@@H](O)CC(C)=O)OC1=O`, the AC50 is reported as > 42 µM (inactive). `CCN(CC)CCNC(=O)CCn1c(=S)[nH]c2cc3c(cc2c1=O)OCO3` was tested, and the AC50 was > 42 µM (inactive). In the case of `CN(C)c1ccc(C(CNS(=O)(=O)c2ccc([N+](=O)[O-])cc2)N2CCOCC2)cc1` (stereo unspecified), the AC50 is reported as > 42 µM (inactive). In the case of `COc1ccc2[nH]c(=O)c(CN(C(=O)c3ccccn3)c3ccccc3)cc2c1`, the AC50 is reported as > 42 µM (inactive). For `CN1CCCC(n2nc(Cc3ccc(Cl)cc3)c3ccccc3c2=O)CC1` (stereo unspecified), the AC50 was > 42 µM (inactive). `COC(=O)[C@@]12CCCCN1[C@H](c1ccc(-c3cccc(Cl)c3)c(OC)c1)[C@H]1C(=O)N(C)C(=O)[C@H]12` was tested, and the AC50 was > 42 µM (inactive). For `O=S(=O)(Nc1ccc(N2CCOCC2)cc1)c1cccs1`, the AC50 was > 42 µM (inactive). For `Cc1ccc(O)c(C)c1`, the AC50 was > 42 µM (inactive). `COC(=O)CCC(=O)OC1(C)C(=O)C2=CN(CCc3c[nH]c4ccccc34)C(c3ccc(OC)cc3)=CC2=C(Br)C1=O` (stereo unspecified) was tested, and the AC50 was > 42 µM (inactive). For `CC1=C(C(=O)Nc2ccccc2)C(c2ccccc2[N+](=O)[O-])NC(=O)N1` (stereo unspecified), the AC50 was > 42 µM (inactive). In the case of `Cc1nn(C)cc1S(=O)(=O)Nc1ncccn1`, the AC50 is reported as > 42 µM (inactive). `CCOc1ccccc1/C=N\Nc1cnn(Cc2ccccc2)c(=O)c1Cl` was tested, and the AC50 was > 42 µM (inactive). For `CCCC(=O)Nc1ccc(Sc2ccc([N+](=O)[O-])cc2)cc1`, the AC50 was > 42 µM (inactive). `Cc1ccc(O)c(C(=O)CC(=O)c2cccc(F)c2)c1` gave an AC50 of 20.1 µM. With `COC(=O)CCC(=O)OC1(C)C(=O)C=C2C=C(C3CC3)N(Cc3ccc4c(c3)OCO4)C=C2C1=O` (stereo unspecified) the AC50 was > 42 µM (inactive). With `N#C/C(=C\c1c(N(Cc2ccccc2)Cc2ccccc2)nc2ccccn2c1=O)C(N)=O` the AC50 was > 42 µM (inactive). In the case of `CCC1(CC)NC(=O)N(CC(=O)OCC(=O)NC(=O)c2ccccc2)C1=O`, the AC50 is reported as > 42 µM (inactive). For `CC(=O)Cc1nsc(Nc2cccc(C)c2)n1`, the AC50 was > 42 µM (inactive). With `COc1ccccc1CNC(=O)C1CCC(CNS(=O)(=O)c2ccc(C)cc2)CC1` (stereo unspecified) the AC50 was > 42 µM (inactive). With `Cc1c(C(=O)Nc2cccc(F)c2)cnn1-c1ccccc1` the AC50 was > 42 µM (inactive). In the case of `NC(=O)CN1CCOCCN(CC(N)=O)CCOCC1`, the AC50 is reported as > 42 µM (inactive). In the case of `CCn1c(SCC(=O)NC2CCCCC2)nnc1C(C)NC(=O)c1ccccc1F` (stereo unspecified), the AC50 is reported as > 42 µM (inactive). `COc1cc(NC(=S)N2CCN(C(=O)C3CCCO3)CC2)c(OC)cc1Cl` (stereo unspecified) was tested, and the AC50 was > 42 µM (inactive). In the case of `CC(=O)Nc1cccc(OCC(=O)NS(=O)(=O)c2ccc(C)cc2)c1`, the AC50 is reported as > 42 µM (inactive). For `CC(C)c1ccc(NC(=O)COc2nnc(-c3cccs3)c(-c3cccs3)n2)cc1`, the AC50 was > 42 µM (inactive). `Cc1ccc(NC(=O)Nc2cccc(C(F)(F)F)c2)nc1` was tested, and the AC50 was > 42 µM (inactive). With `COc1ccc(OC)c(NC(=O)CNC(=O)Cn2ccc3ccccc3c2=O)c1` the AC50 was > 42 µM (inactive). `Cc1cc(C(=O)N/N=C/c2ccc3c(c2)OCO3)c2ccccc2n1` was tested, and the AC50 was > 42 µM (inactive). `O=C1CC(N(CCc2ccccc2)C(=S)Nc2ccccc2)C(=O)N1c1ccc(F)cc1` (stereo unspecified) was tested, and the AC50 was > 42 µM (inactive). With `Cc1ccc(Oc2ccccc2NC(=O)C2=COCCO2)cc1` the AC50 was > 42 µM (inactive). `O=C(c1ccco1)N1CCN(C2CC(=O)N(c3ccc(F)c(Cl)c3)C2=O)CC1` (stereo unspecified) was tested, and the AC50 was > 42 µM (inactive). In the case of `CC(=O)OCC(OC(C)=O)C(OC(C)=O)C(OC(C)=O)C(=O)Nc1ccccc1` (stereo unspecified), the AC50 is reported as > 42 µM (inactive). With `Clc1ccccc1C(c1ccccc1)(c1ccccc1)n1ccnc1` the AC50 was > 42 µM (inactive). In the case of `Cc1cc(C(=O)OCC(=O)Nc2cccc(S(N)(=O)=O)c2)c2ccccc2n1`, the AC50 is reported as > 42 µM (inactive). With `CCCCSCCCNC(=O)Nc1cccc(OC)c1` the AC50 was > 42 µM (inactive). In the case of `O=C1CCCN1CCC1CCN(C2CC(=O)N(c3ccc(Cl)cc3)C2=O)CC1` (stereo unspecified), the AC50 is reported as > 42 µM (inactive). With `O=C(Nc1ccncc1Cl)c1ccncc1` the AC50 was > 42 µM (inactive). `Cc1ccc(C(=O)/C=C/c2ccc(-c3ccccc3[N+](=O)[O-])o2)cc1` was tested, and the AC50 was > 42 µM (inactive). For `O=C(N/N=C/c1ccccc1)c1[nH]c2ccc(Br)cc2c1-c1ccccc1`, the AC50 was > 42 µM (inactive). With `COc1ccccc1-n1nnnc1SCC(=O)Nc1ccc(C)c(N)c1` the AC50 was > 42 µM (inactive). `COc1ccccc1/C=C/C(=O)NC(=S)N1CCOCC1` was tested, and the AC50 was > 42 µM (inactive). `CCCN1C(=O)c2ccc(C(=O)Nc3nccs3)cc2C1=O` was tested, and the AC50 was > 42 µM (inactive). With `Cc1cc(C)n(-c2nc(-c3cccc(Cl)c3)cs2)n1` the AC50 was > 42 µM (inactive). `O=C(Nc1ccccc1N1CCOCC1)c1cc(Br)c(Br)s1` was tested, and the AC50 was > 42 µM (inactive). `CCCCC1=CC2=CC(=O)C(C)(OC(=O)CC)C(=O)C2=CN1CCCOC(C)C` (stereo unspecified) was tested, and the AC50 was > 42 µM (inactive). For `Cc1cc(C#Cc2c(-c3ccccc3)n(C)c3ccccc23)ccc1F`, the AC50 was > 42 µM (inactive). `CC(C)(C)Cc1nc(-c2ccccn2)no1` was tested, and the AC50 was > 42 µM (inactive). For `Cc1ccc(CSCCNC(=O)c2ccc(NS(C)(=O)=O)cc2)cc1`, the AC50 was > 42 µM (inactive). With `COc1cccc(OC)c1C(=O)N1CCN(Cc2ccccc2C)CC1` the AC50 was > 42 µM (inactive). For `CC(C)Oc1ccc(C2(C#N)CC[N+](C)(C)CC2)cc1`, the AC50 was > 42 µM (inactive). In the case of `CN(C)S(=O)(=O)c1ccc(Cl)c(NC(=O)CN2C(=O)NC(C)(C3CC3)C2=O)c1` (stereo unspecified), the AC50 is reported as > 42 µM (inactive). For `CCCCCCOc1ccc(N2C(=O)CC(N3CCC(C(=O)OCC)CC3)C2=O)cc1` (stereo unspecified), the AC50 was > 42 µM (inactive). `COc1ccc(C(=O)COc2ccc3ccc(=O)oc3c2)cc1` was tested, and the AC50 was > 42 µM (inactive). In the case of `O=C(O)CCC(=O)N1N=C(c2c(-c3ccccc3)c3cc(Cl)ccc3[nH]c2=O)CC1c1ccco1` (stereo unspecified), the AC50 is reported as > 42 µM (inactive). In the case of `CC(C)CC(=O)Nc1ccc(C(=O)CN2C(=O)NC3(CCOc4ccccc43)C2=O)cc1` (stereo unspecified), the AC50 is reported as > 42 µM (inactive). `Cc1nnc(NC(=O)c2ccc(-c3cccc(C(F)(F)F)c3)o2)s1` was tested, and the AC50 was > 42 µM (inactive). In the case of `CC(C)(C)c1cc(NCCCn2ccnc2)n2ncc(-c3ccc(Cl)cc3)c2n1`, the AC50 is reported as > 42 µM (inactive). For `CCC(C)NC(=O)CSc1nnc(-c2cc(-c3ccc(C)cc3)nc3ccccc23)n1N` (stereo unspecified), the AC50 was > 42 µM (inactive). `O=C(NC1CCCC1)C(c1cccs1)N(C(=O)c1ccno1)c1ccccc1` (stereo unspecified) was tested, and the AC50 was > 42 µM (inactive). With `C/C(=N\NC(=O)Cc1csc(N2CCOCC2)n1)c1ccccc1` the AC50 was > 42 µM (inactive).
